Data published in patent publication US11331369B2, “Endoparasitic depsipeptides” (Zoetis Services LLC, priority 2017, dated 2022).

Tested on: microfilariae of Dirofilaria immitis
Assay: Dirofilaria immitis, Microfilaria (DiMF) In vitro Assay
Type: cell-based
Details: 72 h, read-out: DiMF Minimum Effective Dose (MED), approximately 72 hours incubation, microfilariae assessed for survival or paralysis

`CC(C)C[C@H]1C(=O)O[C@H](Cc2ccc(Cn3cc(S(=O)(=O)N4CCOCC4)cn3)cc2)C(=O)N(C)[C@@H](CC(C)C)C(=O)O[C@H](C)C(=O)N(C)[C@@H](CC(C)C)C(=O)O[C@H](Cc2ccccc2)C(=O)N(C)[C@@H](CC(C)C)C(=O)O[C@H](C)C(=O)N1C` [Example 2-23, (3S,6R,9S,12R,15S,18R,21S,24R)-6-benzyl-3,9,15,21-tetraisobutyl-4,10,12,16,22,24-hexamethyl-18-(4-((4-(morpholinosulfonyl)-1H-pyrazol-1-yl)methyl)benzyl)-1,7,13,19-tetraoxa-4,10,16,22-tetraazacyclotetracosan-2,5,8,11,14,17,20,23-octaone] and `CC(C)C[C@H]1C(=O)O[C@H](Cc2ccc(Cn3cc(S(=O)(=O)N4CCC4)cn3)cc2)C(=O)N(C)[C@@H](CC(C)C)C(=O)O[C@H](C)C(=O)N(C)[C@@H](CC(C)C)C(=O)O[C@H](Cc2ccccc2)C(=O)N(C)[C@@H](CC(C)C)C(=O)O[C@H](C)C(=O)N1C` [Example 2-27, (3S,6R,9S,12R,15S,18R,21S,24R)-6-(4-((4-(azetidin-1-ylsulfonyl)-1H-pyrazol-1-yl)methyl)benzyl)-18-benzyl-3,9,15,21-tetraisobutyl-4,10,12,16,22,24-hexamethyl-1,7,13,19-tetraoxa-4,10,16,22-tetraazacyclotetracosan-2,5,8,11,14,17,20,23-octaone] fall in the same range of minimal effective concentration: 0.01 to 0.1 µM for the first, 0.01 to 0.1 µM for the second.

`CC(C)C[C@H]1C(=O)O[C@H](Cc2ccc(Cn3cc(S(=O)(=O)N4CCCC4)cn3)cc2)C(=O)N(C)[C@@H](CC(C)C)C(=O)O[C@H](C)C(=O)N(C)[C@@H](CC(C)C)C(=O)O[C@H](Cc2ccccc2)C(=O)N(C)[C@@H](CC(C)C)C(=O)O[C@H](C)C(=O)N1C` [Example 2-24, (3S,6R,9S,12R,15S,18R,21S,24R)-6-benzyl-3,9,15,21-tetraisobutyl-4,10,12,16,22,24-hexamethyl-18-(4-((4-(pyrrolidin-1-ylsulfonyl)-1H-pyrazol-1-yl)methyl)benzyl)-1,7,13,19-tetraoxa-4,10,16,22-tetraazacyclotetracosan-2,5,8,11,14,17,20,23-octaone] and `Cc1nn(Cc2ccc(C[C@H]3OC(=O)[C@H](CC(C)C)N(C)C(=O)[C@@H](C)OC(=O)[C@H](CC(C)C)N(C)C(=O)[C@@H](Cc4ccccc4)OC(=O)[C@H](CC(C)C)N(C)C(=O)[C@@H](C)OC(=O)[C@H](CC(C)C)N(C)C3=O)cc2)c(C)c1S(=O)(=O)N1CCCC1` [Example 2-40, (3S,6R,9S,12R,15S,18R,21S,24R)-6-benzyl-18-(4-((3,5-dimethyl-4-(pyrrolidin-1-ylsulfonyl)-1H-pyrazol-1-yl)methyl)benzyl)-3,9,15,21-tetraisobutyl-4,10,12,16,22,24-hexamethyl-1,7,13,19-tetraoxa-4,10,16,22-tetraazacyclotetracosan-2,5,8,11,14,17,20,23-octaone] fall in the same range of minimal effective concentration: 0.01 to 0.1 µM for the first, 0.01 to 0.1 µM for the second.

`CCCc1cnn(Cc2ccc(C[C@H]3OC(=O)[C@H](CC(C)C)N(C)C(=O)[C@@H](C)OC(=O)[C@H](CC(C)C)N(C)C(=O)[C@@H](Cc4ccccc4)OC(=O)[C@H](CC(C)C)N(C)C(=O)[C@@H](C)OC(=O)[C@H](CC(C)C)N(C)C3=O)cc2)c1` [Example 2-26, (3S,6R,9S,12R,15S,18R,21S,24R)-6-benzyl-3,9,15,21-tetraisobutyl-4,10,12,16,22,24-hexamethyl-18-(4-((4-propyl-1H-pyrazol-1-yl)methyl)benzyl)-1,7,13,19-tetraoxa-4,10,16,22-tetraazacyclotetracosan-2,5,8,11,14,17,20,23-octaone] and `CC(C)C[C@H]1C(=O)O[C@H](Cc2ccc(Cn3cc(CCO)cn3)cc2)C(=O)N(C)[C@@H](CC(C)C)C(=O)O[C@H](C)C(=O)N(C)[C@@H](CC(C)C)C(=O)O[C@H](Cc2ccccc2)C(=O)N(C)[C@@H](CC(C)C)C(=O)O[C@H](C)C(=O)N1C` [Example 2-35, (3S,6R,9S,12R,15S,18R,21S,24R)-6-benzyl-18-(4-((4-(2-hydroxyethyl)-1H-pyrazol-1-yl)methyl)benzyl)-3,9,15,21-tetraisobutyl-4,10,12,16,22,24-hexamethyl-1,7,13,19-tetraoxa-4,10,16,22-tetraazacyclotetracosan-2,5,8,11,14,17,20,23-octaone] fall in the same range of minimal effective concentration: 0.01 to 0.1 µM for the first, 0.01 to 0.1 µM for the second.

First: CC(C)C[C@H]1C(=O)O[C@H](Cc2ccc(Cn3cc([N+](=O)[O-])cn3)cc2)C(=O)N(C)[C@@H](CC(C)C)C(=O)O[C@H](C)C(=O)N(C)[C@@H](CC(C)C)C(=O)O[C@H](Cc2ccccc2)C(=O)N(C)[C@@H](CC(C)C)C(=O)O[C@H](C)C(=O)N1C [Example 2-29, (3S,6R,9S,12R,15S,18R,21S,24R)-6-benzyl-3,9,15,21-tetraisobutyl-4,10,12,16,22,24-hexamethyl-18-(4-((4-nitro-1H-pyrazol-1-yl)methyl)benzyl)-1,7,13,19-tetraoxa-4,10,16,22-tetraazacyclotetracosan-2,5,8,11,14,17,20,23-octaone]
Second: CC(=O)Nc1cnn(Cc2ccc(C[C@H]3OC(=O)[C@H](CC(C)C)N(C)C(=O)[C@@H](C)OC(=O)[C@H](CC(C)C)N(C)C(=O)[C@@H](Cc4ccccc4)OC(=O)[C@H](CC(C)C)N(C)C(=O)[C@@H](C)OC(=O)[C@H](CC(C)C)N(C)C3=O)cc2)c1 [Example 2-31, N-(1-(4-(((2R,5S,8R,11S,14R,17S,20R,23S)-14-benzyl-5,11,17,23-tetraisobutyl-4,8,10,16,20,22-hexamethyl-3,6,9,12,15,18,21,24-octaoxo-1,7,13,19-tetraoxa-4,10,16,22-tetraazacyclotetracosan-2-yl)methyl)benzyl)-1H-pyrazol-4-yl)acetamide]
The minimal effective concentration of the first is lower: 0.001 to 0.01 µM for the first, 0.01 to 0.1 µM for the second.

`CC(C)C[C@H]1C(=O)O[C@H](Cc2ccc(Cn3nc(C4CC4)cc3C3CC3)cc2)C(=O)N(C)[C@@H](CC(C)C)C(=O)O[C@H](C)C(=O)N(C)[C@@H](CC(C)C)C(=O)O[C@H](Cc2ccccc2)C(=O)N(C)[C@@H](CC(C)C)C(=O)O[C@H](C)C(=O)N1C` [Example 2-32, (3S,6R,9S,12R,15S,18R,21S,24R)-6-benzyl-18-(4-((3,5-dicyclopropyl-1H-pyrazol-1-yl)methyl)benzyl)-3,9,15,21-tetraisobutyl-4,10,12,16,22,24-hexamethyl-1,7,13,19-tetraoxa-4,10,16,22-tetraazacyclotetracosan-2,5,8,11,14,17,20,23-octaone] and `CC(C)C[C@H]1C(=O)O[C@H](Cc2ccc(Cn3cc(C4CCCC4)cn3)cc2)C(=O)N(C)[C@@H](CC(C)C)C(=O)O[C@H](C)C(=O)N(C)[C@@H](CC(C)C)C(=O)O[C@H](Cc2ccccc2)C(=O)N(C)[C@@H](CC(C)C)C(=O)O[C@H](C)C(=O)N1C` [Example 2-38, (3S,6R,9S,12R,15S,18R,21S,24R)-6-benzyl-18-(4-((4-cyclopentyl-1H-pyrazol-1-yl)methyl)benzyl)-3,9,15,21-tetraisobutyl-4,10,12,16,22,24-hexamethyl-1,7,13,19-tetraoxa-4,10,16,22-tetraazacyclotetracosan-2,5,8,11,14,17,20,23-octaone] fall in the same range of minimal effective concentration: 0.01 to 0.1 µM for the first, 0.01 to 0.1 µM for the second.

`CC(C)C[C@H]1C(=O)O[C@H](Cc2ccc(Cn3cc(NS(C)(=O)=O)cn3)cc2)C(=O)N(C)[C@@H](CC(C)C)C(=O)O[C@H](C)C(=O)N(C)[C@@H](CC(C)C)C(=O)O[C@H](Cc2ccccc2)C(=O)N(C)[C@@H](CC(C)C)C(=O)O[C@H](C)C(=O)N1C` [Example 2-36, N-(1-(4-(((2R,5S,8R,11S,14R,17S,20R,23S)-14-benzyl-5,11,17,23-tetraisobutyl-4,8,10,16,20,22-hexamethyl-3,6,9,12,15,18,21,24-octaoxo-1,7,13,19-tetraoxa-4,10,16,22-tetraazacyclotetracosan-2-yl)methyl)benzyl)-1H-pyrazol-4-yl)methanesulfonamide] and `CC(=O)Nc1c(C)nn(Cc2ccc(C[C@H]3OC(=O)[C@H](CC(C)C)N(C)C(=O)[C@@H](C)OC(=O)[C@H](CC(C)C)N(C)C(=O)[C@@H](Cc4ccccc4)OC(=O)[C@H](CC(C)C)N(C)C(=O)[C@@H](C)OC(=O)[C@H](CC(C)C)N(C)C3=O)cc2)c1C` [Example 2-43, N-(1-(4-(((2R,5S,8R,11S,14R,17S,20R,23S)-14-benzyl-5,11,17,23-tetraisobutyl-4,8,10,16,20,22-hexamethyl-3,6,9,12,15,18,21,24-octaoxo-1,7,13,19-tetraoxa-4,10,16,22-tetraazacyclotetracosan-2-yl)methyl)benzyl)-3,5-dimethyl-1H-pyrazol-4-yl)acetamide] fall in the same range of minimal effective concentration: 0.01 to 0.1 µM for the first, 0.01 to 0.1 µM for the second.

First: CCOc1cnn(Cc2ccc(C[C@H]3OC(=O)[C@H](CC(C)C)N(C)C(=O)[C@@H](C)OC(=O)[C@H](CC(C)C)N(C)C(=O)[C@@H](Cc4ccc(CO)cc4)OC(=O)[C@H](CC(C)C)N(C)C(=O)[C@@H](C)OC(=O)[C@H](CC(C)C)N(C)C3=O)cc2)c1 [Example 2-39, (3S,6R,9S,12R,15S,18R,21S,24R)-6-(4-((4-ethoxy-1H-pyrazol-1-yl)methyl)benzyl)-18-(4-(hydroxymethyl)benzyl)-3,9,15,21-tetraisobutyl-4,10,12,16,22,24-hexamethyl-1,7,13,19-tetraoxa-4,10,16,22-tetraazacyclotetracosan-2,5,8,11,14,17,20,23-octaone]
Second: CC(C)C[C@H]1C(=O)O[C@H](Cc2ccc(Cn3nc(CO)cc3CO)cc2)C(=O)N(C)[C@@H](CC(C)C)C(=O)O[C@H](C)C(=O)N(C)[C@@H](CC(C)C)C(=O)O[C@H](Cc2ccccc2)C(=O)N(C)[C@@H](CC(C)C)C(=O)O[C@H](C)C(=O)N1C [Example 2-42, (3S,6R,9S,12R,15S,18R,21S,24R)-6-benzyl-18-(4-((3,5-bis(hydroxymethyl)-1H-pyrazol-1-yl)methyl)benzyl)-3,9,15,21-tetraisobutyl-4,10,12,16,22,24-hexamethyl-1,7,13,19-tetraoxa-4,10,16,22-tetraazacyclotetracosan-2,5,8,11,14,17,20,23-octaone]
The minimal effective concentration of the first is lower: 0.001 to 0.01 µM for the first, 0.01 to 0.1 µM for the second.
